Experimental data published in patent publication US6447749B1, “Perfluoro-alkyl containing dye molecules and galencial formulations” (Schering Aktiengesellschaft, priority 1999, dated 2002).

Experiments:
[1] = tested on: lymph nodes; experiment: Fluorescence coloring of lymph nodes after intravenous administration; type: in vivo; conditions: rat; 5 hours after intravenous administration; 0.2 ml of 0.5 mmol/L dye 8 and 9.5 mmol/L Gd complex; excitation 740 nm, detection >800 nm
Description: From the substance, 0.2 ml of a solution that contained 0.5 mmol/L of dye 8 and 9.5 mmol/L of 10-[1-methyl-2-oxo-3-aza-5-oxo-5-{4-perfluorooctylsulfonyl-piperazin-1-yl}-pentyl]-1,4,7-tris(carboxymethyl)-1,4,7,10-tetraazacyclododecane, was administered intravenously in a caudal vein of the rat. Five hours after administration, the lymph nodes were prepared and a fluorescence image was recorded. The fluorescence of the substances was stimulated by irradiation of the lymph nodes with near-infrared light of wavelength 740 nm, which was produced with an Nd:YAG laser. The fluorescence radiation was detected at a wavelength of >800 nm by an intensified CCD-camera, and the fluorescence images were stored digitally.

[2] = Photophysical characterization: fluorescence properties and fluorescence quantum yield (SPEX-fluorolog, relative to indocyanine green); type: physicochemical
Description: (§1) The determination of the absorption maxima and extinction coefficients was carried out with a Lambda 2-spectrometer (Perkin-Elmer Company). The fluorescence properties were determined on a SPEX-fluorolog (Instruments S. A. Company, photomultiplier Hamamatsu PM928, excitation 350W xenon lamp). the determination of the fluorescence quantum yield was carried out relative to indocyanine green (O=13% in DMSO) by excitation at 585 nm (dyes with p=2) or 685 nm (dyes with p=3), in each case of solutions of concentration 2 μM in dye, and correction with the spectral sensitivity of lamp and detector.

[3] = tested on: lymph nodes; experiment: Fluorescence coloring of lymph nodes after interstitial administration (monosaccharide formulation); type: in vivo; conditions: 5 mol % of dye 8 and 95 mol % mannopyranosyl perfluoroalkyl amide
Description: From the substance, 0.1 ml of a solution that contained 1 mmol/L of dye 8 and 19 mmol/L of 6-[1-O-α-D-mannopyranosyl]-hexanoic acid N-(3-oxa-1H,1H,2H,2H,4H,4H,5H,5H-perfluorotridecyl)-amide was administered interstitially in a skin fold between the toes of the right rear extremity of the animal. Five hours after administration, the lymph nodes of the right and left sides of the body were prepared, and a fluorescence image was recorded. The fluorescence of the substances was stimulated by irradiation of the lymph nodes with near-infrared light of wavelength 740 nm, which was produced with an Nd:YAG laser. The fluorescence radiation was detected at a wavelength of >800 nm by an intensified CCD-camera, and the fluorescence images were stored digitally.

[4] = tested on: lymph nodes; experiment: Visualization of lymph nodes in situ after interstitial administration; type: in vivo, rat; conditions: five hours after interstitial administration
Description: 0.1 ml of a formulation that contained 1 mmol/L of dye 8 and 19 mmol/L of 6-[1-O-α-D-mannopyranosyl)-hexanoic acid N-(3-oxa-1H,1H,2H,2H,4H,4H,5H,5H-perfluorotridecyl)-amide was administered interstitially in a skin fold between the toes of the right rear extremity. Five hours after administration, the test animal was sacrificed and opened abdominally. Based on the fluorescence image, the lymph nodes can be localized in situ and the lymph tracts can be visualized. […] The fluorescence of the substances was stimulated by irradiation of the abdominally-opened animal with near-infrared light of wavelength 740 nm, which was produced with an Nd:YAG laser. The fluorescence radiation was detected at a wavelength of >800 nm by an intensified CCD-camera, and the fluorescence images were stored digitally.

[5] = tested on: regional lymph nodes; experiment: Interstitial near-infrared lymphography of guinea pigs; type: in vivo; conditions: guinea pig, formulation 5 mol % of dye 8/95 mol % Gd complex, interstitial/intracutaneous, 0.3 μmol/kg of 8
Description: The imaging properties of the formulations according to the invention were studied in vivo in guinea pigs. […] The fluorescence of the substances was stimulated by irradiation of the animals with near-infrared light of wavelength 740 nm, which was produced with an Nd:YAG laser. The fluorescence radiation was detected at a wavelength of >800 nm by an intensified CCD-camera, and the fluorescence images were stored digitally.
0.1 ml of a stock solution with 1 mmol/L of 8 was injected into a skin fold between the toes of the right rear extremity, and the final concentration was 0.3 μmol/kg of 8.

[6] = Photophysical characterization: absorption maxima and extinction coefficients (Lambda 2-spectrometer); type: physicochemical
Description: as §1

[7] = tested on: regional lymph nodes; experiment: Coloring of regional lymph nodes after interstitial administration; type: in vivo; conditions: guinea pig; formulation 5 mol % of dye 8/95 mol % Gd complex; after interstitial/intracutaneous administration, lymph nodes prepared ex vivo; listed as 8, sodium salt
Description: After the interstitial near-infrared lymphography was completed, the regional lymph nodes were prepared in the area of the administration site. […] This coloring can be used for the intraoperative diagnosis for the identification of the draining lymph nodes of a certain tissue area and for differentiating the lymph nodes from the surrounding tissue.

[8] = dyes 7-14 table, formulation with Gd-complex perfluoroalkyl derivative (WO 97/26017 Ex. 33), 5 mol % of dye
[9] = formulation with Gd-complex perfluoroalkyl derivative (WO 97/26017 Ex. 33), 1 mol % of dye
[10] = formulation with Gd-complex perfluoroalkyl derivative (WO 97/26017 Ex. 33), 2 mol % of dye
[11] = formulation with Gd-complex perfluoroalkyl derivative (WO 97/26017 Ex. 33), 5 mol % of dye
[12] = formulation with Gd-complex perfluoroalkyl derivative (WO 97/26017 Ex. 33), 10 mol % of dye
[13] = three-component formulation: 5 mol % of dye, 0 mol % of Gd complex, 95 mol % of monosaccharide
[14] = three-component formulation: 5 mol % of dye, 10 mol % of Gd complex, 85 mol % of monosaccharide
[15] = three-component formulation: 5 mol % of dye, 30 mol % of Gd complex, 65 mol % of monosaccharide
[16] = three-component formulation: 5 mol % of dye, 50 mol % of Gd complex, 45 mol % of monosaccharide
[17] = three-component formulation: 5 mol % of dye, 70 mol % of Gd complex, 25 mol % of monosaccharide
[18] = three-component formulation: 5 mol % of dye, 90 mol % of Gd complex, 5 mol % of monosaccharide
[19] = five hours after interstitial administration (right rear extremity)

Fluorescence max. [2, 8]: 788 nm
Fluorescence quantum yield ([2]; dyes 7-14 table, formulation with Gd-complex perfluoroalkyl derivative (WO 97/26017 Ex. 33), 5 mol % of dye, 2 μM in dye): 0.14
Fluorescence max. [2, 9]: 784 nm
Fluorescence quantum yield ([2]; formulation with Gd-complex perfluoroalkyl derivative (WO 97/26017 Ex. 33), 1 mol % of dye, 2 μM in dye): 0.23
Fluorescence max. [2, 10]: 785 nm
Fluorescence quantum yield ([2]; formulation with Gd-complex perfluoroalkyl derivative (WO 97/26017 Ex. 33), 2 mol % of dye, 2 μM in dye): 0.23
Fluorescence max. [2, 11]: 788 nm
Fluorescence quantum yield ([2]; formulation with Gd-complex perfluoroalkyl derivative (WO 97/26017 Ex. 33), 5 mol % of dye, 2 μM in dye): 0.14
Fluorescence max. [2, 12]: 790 nm
Fluorescence quantum yield ([2]; formulation with Gd-complex perfluoroalkyl derivative (WO 97/26017 Ex. 33), 10 mol % of dye, 2 μM in dye): 0.03
Fluorescence maximum [2, 13]: 800 nm
Fluorescence quantum yield [2, 13]: 0.16
Fluorescence maximum [2, 14]: 800 nm
Fluorescence quantum yield [2, 14]: 0.11
Fluorescence maximum [2, 15]: 800 nm
Fluorescence quantum yield [2, 15]: 0.14
Fluorescence maximum [2, 16]: 798 nm
Fluorescence quantum yield [2, 16]: 0.26
Fluorescence maximum [2, 17]: 794 nm
Fluorescence quantum yield [2, 17]: 0.18
Fluorescence maximum [2, 18]: 793 nm
Fluorescence quantum yield [2, 18]: 0.13
Absorption max. [6, 8]: 753 nm
Extinction coefficient [6, 8]: 120,800 L mol^−1 cm^−1
Absorption max. [6, 9]: 755 nm
Extinction coefficient [6, 9]: 150,500 L mol^−1 cm^−1
Absorption max. [6, 10]: 755 nm
Extinction coefficient [6, 10]: 148,800 L mol^−1 cm^−1
Absorption max. [6, 11]: 753 nm
Extinction coefficient [6, 11]: 120,800 L mol^−1 cm^−1
Absorption max. [6, 12]: 751 nm
Extinction coefficient [6, 12]: 108,500 L mol^−1 cm^−1
Absorption maximum [6, 13]: 760 nm
Extinction coefficient [6, 13]: 90500 L/mol/cm
Absorption maximum [6, 14]: 760 nm
Extinction coefficient [6, 14]: 102700 L/mol/cm
Absorption maximum [6, 15]: 760 nm
Extinction coefficient [6, 15]: 107900 L/mol/cm
Absorption maximum [6, 16]: 756 nm
Extinction coefficient [6, 16]: 108700 L/mol/cm
Absorption maximum [6, 17]: 756 nm
Extinction coefficient [6, 17]: 111100 L/mol/cm
Absorption maximum [6, 18]: 755 nm
Extinction coefficient [6, 18]: 112500 L/mol/cm
SMILES: CC1(C)C(=CC=CC=CC=CC2=[N+](CCCCS(=O)(=O)[O-])c3ccc(C(=O)N(CCOCCC(F)(F)C(F)(F)C(F)(F)C(F)(F)C(F)(F)C(F)(F)C(F)(F)C(F)(F)F)CC(O)CO)cc3C2(C)C)N(CCCCS(=O)(=O)[O-])c2ccccc21.[Na+] (centres unmarked) [Dye 10, 5-{N-[2-(3,3,4,4,5,5,6,6,7,7,8,8,9,9,10,10,10-heptadecafluorodecyloxy)ethyl]-N-(2,3-dihydroxypropyl)aminocarbonyl}-2-{7-[1,3-dihydro-3,3-dimethyl-1-(4-sulfobutyl)-2H-indol-2-ylidene]-1,3,5-heptatrienyl}-3,3-dimethyl-1-(4-sulfobutyl)-3H-indolium, internal salt, sodium salt]
fluorescence signal of axillary, inguinal and popliteal lymph nodes [1]: All lymph nodes showed a clear fluorescence signal
fluorescence signal of lymph nodes, left side of the body [3, 19]: no lymph nodes of the left side of the body
fluorescence signal of lymph nodes, right (administered) side of the body [3, 19]: Most lymph nodes of the right (administered) side of the body showed a fluorescence signal
coloring of the fluorescence-labeled lymph nodes ([3]; five hours after interstitial administration): greenish-colored
visualization of lymph nodes and lymph tract in situ by fluorescence ([4]; abdominally-opened rat, 0.1 ml of 1 mmol/L dye 8 and 19 mmol/L mannopyranosyl perfluoroalkyl amide): visualized based on a fluorescence signal
visual coloring of lymph nodes in situ ([4]; rat, 5 mol % of dye 8 and 95 mol % mannopyranosyl perfluoroalkyl amide): green coloring
fluorescence signal at the injection site ([5]; abdominal view, 120 minutes after administration): strong fluorescence signal
fluorescence signal at the injection site ([5]; right lateral view, 117 minutes after administration): strong fluorescence signal
coloring of regional (inguinal) lymph nodes [7]: clearly visible green-coloring
